Laboratory results taken from patent US11155517B2, “4-substituted phenylamine derivatives and their use to protect crops by fighting undesired phytopathogenic micoorganisms” (PI INDUSTRIES LTD., priority 2016, dated 2021).

Tests used:
Assay type in all cases: cell-based
[1] = system: Colletotrichum capsici; test: Colletotrichum capsici (anthracnose) in vitro test, radial growth on Potato Dextrose Agar; conditions: Colletotrichum truncatum, 168 h; 300 ppm; seven days, 25° C.; read-out: % control compared to the untreated check (radial growth)
[2] = system: Alternaria solani; test: Alternaria solani (early blight of tomato/potato) in vitro test, radial growth on Potato Dextrose Agar; conditions: 168 h, 300 ppm, seven days, 25° C., read-out: % control compared to the untreated check (radial growth)
[3] = system: Pyricularia oryzae; test: microbe, parasite or virus in culture; conditions: 168 h, read-out: % control compared to the untreated check (radial growth)
[4] = system: Rhizoctonia solani; test: Rhizoctonia solani (rice sheath blight/potato black scurf) in vitro test, radial growth on Potato Dextrose Agar; conditions: 168 h, 300 ppm, seven days, 25° C., read-out: % control compared to the untreated check (radial growth)
[5] = system: Botrytis cinerea; test: Botrytis cinerea (gray mold) in vitro test, radial growth on Potato Dextrose Agar; conditions: 168 h, 300 ppm, seven days, 22° C., read-out: % (control) compared to the untreated check (radial growth)

Row | SMILES | inhibition of growth at 300 ppm [1] | inhibition of growth at 300 ppm [2] | inhibition of growth at 300 ppm [3] | inhibition of growth at 300 ppm [4] | inhibition of growth at 300 ppm [5]
1 | CCN(C)C=Nc1cc(C)c(Cc2cc(Cl)cc(Cl)c2)cc1Cl [Compound 21, N′-(2-chloro-4-(3,5-dichlorobenzyl)-5-methylphenyl)-N-ethyl-N-methylformimidamide] | > 80% | > 75% | > 75% | > 80% | > 80%
2 | Cc1cc(N=CN2CCCCC2)c(Cl)cc1Cc1cccc(F)c1 [Compound 39, N-(2-chloro-4-(3-fluorobenzyl)-5-methylphenyl)-1-(piperidin-1-yl)methanimine] | > 80% | > 75% | > 75% | > 80% | 
3 | Cc1cc(N=CN2CCSCC2)c(C)cc1Cc1ccccc1F [Compound 85, N-(4-(2-fluorobenzyl)-2,5-dimethylphenyl)-1-thiomorpholinomethanimine] | > 80% | > 75% | > 75% | > 80% | > 80%
4 | CCN(C)C=Nc1cc(C)c(Cc2ccc(Cl)c(F)c2)cc1Cl [Compound 95, N′-(2-chloro-4-(4-chloro-3-fluorobenzyl)-5-methylphenyl)-N-ethyl-N-methylformimidamide] | > 80% | > 75% | > 75% | > 80% | > 80%
5 | CCN(C)C=Nc1cc(C)c(Cc2ccccc2C#N)cc1Cl [Compound 100, N′-(2-chloro-4-(2-cyanobenzyl)-5-methylphenyl)-N-ethyl-N-methylformimidamide] | > 80% | > 75% | > 75% | > 80% | 
6 | CCN(C)C=Nc1cc(C)c(Cc2cccc(C(C)C#N)c2)cc1C (stereo not drawn) [Compound 107, N′-(4-(3-(1-cyanoethyl)benzyl)-2,5-dimethylphenyl)-N-ethyl-N-methylformimidamide] | > 80% | > 75% | > 75% | > 80% | > 80%
7 | CCN(C)C=Nc1cc(C)c(Cc2ccccc2C)cc1Cl [Compound 122, N′-(2-chloro-5-methyl-4-(2-methylbenzyl)phenyl)-N-ethyl-N-methylformimidamide] | > 80% | > 75% | > 75% | > 80% | 
8 | CCN(C)C=Nc1cc(C)c(Cc2cccc(Cl)c2F)cc1Cl [Compound 123, N′-(2-chloro-4-(3-chloro-2-fluorobenzyl)-5-methylphenyl)-N-ethyl-N-methylformimidamide] | > 80% | > 75% | > 75% | > 80% | > 80%
9 | CCN(C)C=Nc1cc(C)c(C(C#N)c2ccccc2)cc1C (stereo not drawn) [Compound 127, N′-(4-(cyano(phenyl)methyl)-2,5-dimethylphenyl)-N-ethyl-N-methylformimidamide] | > 80% | > 75% | > 75% | > 80% | 
10 | CCN(C)C=Nc1cc(Cl)c(Cc2cccc(Cl)c2)cc1Cl [Compound 152, N′-(2,5-dichloro-4-(3-chlorobenzyl)phenyl)-N-ethyl-N-methylformimidamide] |  | > 75% | > 75% | > 80% | > 80%
11 | CCN(C)C=Nc1cc(Cl)c(Cc2cccc(OC(F)(F)F)c2)cc1Cl [Compound 182, N′-(2,5-dichloro-4-(3-(trifluoromethoxy)benzyl)phenyl)-N-ethyl-N-methylformimidamide] |  | > 75% | > 75% | > 80% | > 80%
12 | CCN(C)C=Nc1cc(C)c(Cc2c(F)cccc2F)cc1Cl [Compound 203, N′-(2-chloro-4-(2,6-difluorobenzyl)-5-methylphenyl)-N-ethyl-N-methylformimidamide] | > 80% | > 75% | > 75% |  | 
13 | CCN(C)C=Nc1cc(C)c(Cc2cccc(C(F)(F)F)c2)cc1F [Compound 205, N-ethyl-N′-(2-fluoro-5-methyl-4-(3-(trifluoromethyl)benzyl)phenyl)-N-methylformimidamide] | > 80% | > 75% | > 75% | > 80% | 
14 | CCN(C)C=Nc1cc(C(F)(F)F)c(Cc2cccc(F)c2)cc1F [Compound 230, N-ethyl-N′-(2-fluoro-4-(3-fluorobenzyl)-5-(trifluoromethyl)phenyl)-N-methylformimidamide] |  | > 75% | > 75% | > 80% | > 80%
15 | CCN(C)C=Nc1cc(C(F)(F)F)c(Cc2cccc(C(F)(F)F)c2)cc1F [Compound 232, N-ethyl-N′-(2-fluoro-5-(trifluoromethyl)-4-(3-(trifluoromethyl)benzyl)phenyl)-N-methylformimidamide] |  | > 75% | > 75% | > 80% | > 80%
16 | CCN(C)C=Nc1cc(C#N)c(Cc2ccccc2F)cc1C [Compound 247, N′-(5-cyano-4-(2-fluorobenzyl)-2-methylphenyl)-N-ethyl-N-methylformimidamide] |  | > 75% | > 75% | > 80% | > 80%
17 | CCN(C)C=Nc1cc(C#N)c(Cc2cccc(C)c2)cc1C [Compound 251, N′-(5-cyano-2-methyl-4-(3-methylbenzyl)phenyl)-N-ethyl-N-methylformimidamide] |  | > 75% | > 75% | > 80% | > 80%
18 | CCN(C)C=Nc1cc(C(F)(F)F)c(Cc2cccc(Cl)c2)cc1C1CC1 [Compound 265, N′-(4-(3-chlorobenzyl)-2-cyclopropyl-5-(trifluoromethyl)phenyl)-N-ethyl-N-methylformimidamide] |  | > 75% | > 75% | > 80% | > 80%
19 | CCN(C)C=Nc1c(C)cc(Cc2ccc(C3CC3)cc2)c(C)c1C1CC1 [Compound 267, N′-(2-cyclopropyl-4-(4-cyclopropylbenzyl)-3,6-dimethylphenyl)-N-ethyl-N-methylformimidamide] |  | > 75% | > 75% | > 80% | > 80%
20 | CCN(C)C=Nc1cc(C)c(Cc2cccc(C)c2)cc1S(C)(=O)=O [Compound 273, N-ethyl-N-methyl-N′-(5-methyl-4-(3-methylbenzyl)-2-(methylsulfonyl)phenyl)formimidamide] |  | > 75% | > 75% | > 80% | > 80%
